Assay results published in ChEMBL document CHEMBL5338754, “Identification of Binding Sites in the Nucleotide-Binding Domain of P-Glycoprotein for a Potent and Nontoxic Modulator, the Amine-Containing Monomeric Flavonoid FM04” (J Med Chem, 2023).

Tests used:
[1] = molecular target: T1, ATP-dependent translocase ABCB1 (Homo sapiens, UniProt P08183); assay: Negative allosteric modulator activity at P-gp in human LCC6MDR cells overexpressing P-gp assessed as reversal of P-gp mediated paclitaxel resistance activity by measuring relative fold at 1 uM incubated for 5 days by MTS assay; assay type: cell-based; conditions: 120 h, time 5 day
[2] = molecular target: T1, ATP-dependent translocase ABCB1; assay: Binding affinity to P-glycoprotein in human LCC6MDR cells assessed as stabilization of protein by measuring fluorescence at 1 uM incubated for 1 hr by Western blotting analysis; assay type: cell-based
[3] = molecular target: T1, ATP-dependent translocase ABCB1; assay: Binding affinity to human P-glycoprotein expressed in LCC6MDR cells assessed as stabilization of protein by measuring fluorescence at 1 uM incubated for 1 hr by Western blotting analysis; assay type: cell-based
[4] = molecular target: T1, ATP-dependent translocase ABCB1; assay: Negative allosteric modulator activity at P-gp in human LCC6MDR cells assessed as increase in intracellular doxorubicin accumulation using doxorubicin as substrate incubated for 150 mins by microplate reader assay; assay type: cell-based; conditions: 2.5 h
[5] = molecular target: T2, ATP-dependent translocase ABCB1 (Mus musculus, UniProt P06795); assay: Displacement of FM04 from mouse P-glycoprotein expressed in Pichia pastoris at 1 uM by competitive binding assay
[6] = molecular target: T2, ATP-dependent translocase ABCB1; assay: Binding affinity to biotin-labeled mouse P-glycoprotein expressed in Pichia pastoris assessed as stabilization of protein by measuring fluorescence at 100 uM incubated for 2 hr by Streptavidin-HRP blotting assay
[7] = molecular target: T2, ATP-dependent translocase ABCB1; assay: Binding affinity to mouse P-glycoprotein expressed in Pichia pastoris assessed as stabilization of protein by measuring fluorescence at 100 uM incubated for 2 hr by Streptavidin-pull down blotting assay
[8] = molecular target: T1, ATP-dependent translocase ABCB1; assay: Binding affinity to human P-glycoprotein expressed in LCC6MDR cells assessed as stabilization of protein by measuring fluorescence at 0.1 to 1 uM by Western blotting analysis; assay type: cell-based; conditions: dose 0.1-1 µM
[9] = molecular target: T1, ATP-dependent translocase ABCB1; assay: Displacement of FM-04 from human P-glycoprotein expressed in LCC6MDR cells at 1 uM by competitive binding assay; assay type: cell-based
[10] = molecular target: T2, ATP-dependent translocase ABCB1; assay: Binding affinity to mouse P-glycoprotein expressed in Pichia pastoris assessed as stabilization of protein by measuring fluorescence at 100 uM incubated for 2 hr by Streptavidin-HRP blotting assay
[11] = molecular target: T2, ATP-dependent translocase ABCB1; assay: Binding affinity to mouse P-glycoprotein expressed in Pichia pastoris assessed as stabilization of protein by measuring fluorescence at 1 uM by Western blotting analysis
[12] = molecular target: T2, ATP-dependent translocase ABCB1; assay: Binding affinity to mouse P-glycoprotein expressed in Pichia pastoris assessed as stabilization of protein by measuring fluorescence at 1000 uM incubated for 2 hr by Streptavidin-pull down blotting assay

T1 sequence (P08183 whole entry): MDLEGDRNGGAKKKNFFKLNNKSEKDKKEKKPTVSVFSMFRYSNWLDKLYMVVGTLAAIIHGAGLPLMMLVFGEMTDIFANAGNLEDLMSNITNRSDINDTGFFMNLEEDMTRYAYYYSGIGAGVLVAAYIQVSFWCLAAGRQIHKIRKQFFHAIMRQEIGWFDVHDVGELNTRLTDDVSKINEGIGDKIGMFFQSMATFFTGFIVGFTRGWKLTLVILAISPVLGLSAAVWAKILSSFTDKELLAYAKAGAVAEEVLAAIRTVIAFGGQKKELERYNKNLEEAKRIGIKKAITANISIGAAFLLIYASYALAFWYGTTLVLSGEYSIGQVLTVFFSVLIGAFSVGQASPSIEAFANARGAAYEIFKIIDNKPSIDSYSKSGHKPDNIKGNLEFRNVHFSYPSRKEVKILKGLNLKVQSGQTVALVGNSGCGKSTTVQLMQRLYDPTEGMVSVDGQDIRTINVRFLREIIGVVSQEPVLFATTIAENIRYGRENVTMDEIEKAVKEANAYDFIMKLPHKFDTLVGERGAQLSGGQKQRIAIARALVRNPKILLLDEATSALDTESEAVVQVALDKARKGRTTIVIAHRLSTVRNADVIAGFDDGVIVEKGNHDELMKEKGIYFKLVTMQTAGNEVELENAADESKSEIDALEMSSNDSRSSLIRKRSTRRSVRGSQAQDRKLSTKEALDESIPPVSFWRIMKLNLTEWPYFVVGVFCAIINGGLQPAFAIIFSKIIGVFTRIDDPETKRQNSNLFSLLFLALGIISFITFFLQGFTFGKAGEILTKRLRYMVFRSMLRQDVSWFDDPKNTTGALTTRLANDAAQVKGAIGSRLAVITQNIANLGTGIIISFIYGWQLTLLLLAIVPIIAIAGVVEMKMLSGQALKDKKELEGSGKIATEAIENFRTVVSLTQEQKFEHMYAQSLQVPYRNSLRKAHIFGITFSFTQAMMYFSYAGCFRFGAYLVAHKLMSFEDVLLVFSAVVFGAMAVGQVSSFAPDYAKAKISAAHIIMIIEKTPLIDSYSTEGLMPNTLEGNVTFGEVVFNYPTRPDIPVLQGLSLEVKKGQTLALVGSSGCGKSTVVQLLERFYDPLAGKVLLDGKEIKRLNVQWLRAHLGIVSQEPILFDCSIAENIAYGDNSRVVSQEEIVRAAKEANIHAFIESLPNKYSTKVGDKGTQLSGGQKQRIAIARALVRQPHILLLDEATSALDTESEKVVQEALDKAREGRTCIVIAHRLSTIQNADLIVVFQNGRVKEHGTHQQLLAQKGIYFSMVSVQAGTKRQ
T2 sequence (P06795 whole entry): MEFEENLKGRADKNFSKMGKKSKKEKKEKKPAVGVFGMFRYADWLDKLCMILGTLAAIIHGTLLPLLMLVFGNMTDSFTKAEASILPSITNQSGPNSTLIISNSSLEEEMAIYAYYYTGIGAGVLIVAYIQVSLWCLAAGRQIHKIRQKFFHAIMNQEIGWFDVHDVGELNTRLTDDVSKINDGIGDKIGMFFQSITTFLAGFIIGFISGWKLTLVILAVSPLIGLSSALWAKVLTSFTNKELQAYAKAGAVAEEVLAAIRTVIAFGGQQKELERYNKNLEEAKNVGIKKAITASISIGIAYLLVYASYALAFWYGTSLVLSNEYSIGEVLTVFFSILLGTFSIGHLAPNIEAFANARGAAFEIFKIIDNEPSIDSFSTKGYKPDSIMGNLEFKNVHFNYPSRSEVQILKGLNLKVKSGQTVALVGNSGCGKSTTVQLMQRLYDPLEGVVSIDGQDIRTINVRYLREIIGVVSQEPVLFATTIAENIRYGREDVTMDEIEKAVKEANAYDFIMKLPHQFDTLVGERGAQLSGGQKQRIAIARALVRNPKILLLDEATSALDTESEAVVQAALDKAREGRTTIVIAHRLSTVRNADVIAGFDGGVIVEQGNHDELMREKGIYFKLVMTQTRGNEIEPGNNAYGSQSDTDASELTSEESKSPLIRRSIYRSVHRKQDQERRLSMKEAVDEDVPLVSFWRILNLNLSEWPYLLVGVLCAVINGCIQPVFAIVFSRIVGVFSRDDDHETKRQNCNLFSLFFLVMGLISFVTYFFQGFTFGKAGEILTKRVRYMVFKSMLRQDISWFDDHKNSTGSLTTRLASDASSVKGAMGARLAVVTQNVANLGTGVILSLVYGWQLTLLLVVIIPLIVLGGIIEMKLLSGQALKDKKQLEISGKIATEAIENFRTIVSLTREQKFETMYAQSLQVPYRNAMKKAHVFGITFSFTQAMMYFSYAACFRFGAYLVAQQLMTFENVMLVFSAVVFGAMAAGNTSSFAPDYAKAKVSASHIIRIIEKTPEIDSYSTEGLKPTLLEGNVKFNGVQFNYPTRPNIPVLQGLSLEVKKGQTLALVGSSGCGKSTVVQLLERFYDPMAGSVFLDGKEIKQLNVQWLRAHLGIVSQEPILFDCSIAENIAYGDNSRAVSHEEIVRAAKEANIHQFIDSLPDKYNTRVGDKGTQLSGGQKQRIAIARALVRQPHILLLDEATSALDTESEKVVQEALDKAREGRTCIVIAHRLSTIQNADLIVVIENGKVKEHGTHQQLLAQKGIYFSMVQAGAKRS

| fold change (FC) [1] | Activity [2] | Activity [3] | Compound | other results |
| --- | --- | --- | --- | --- |
| 2.3 | Not Active | Not Active | C#CCN(CCOCCOc1ccc(-c2cc(=O)c3ccccc3o2)cc1)Cc1ccc(C2(C(F)(F)F)N=N2)cc1 |  |
| 0.8 |  |  | O=c1cc(-c2ccc(OCCOCCN(Cc3ccc(C4(C(F)(F)F)N=N4)cc3)Cc3ccc(C4(C(F)(F)F)N=N4)cc3)cc2)oc2ccccc12 |  |
| 28 |  |  | O=c1cc(-c2ccc(OCCOCCOCCOCCOc3ccc(-c4cc(=O)c5ccccc5o4)cc3)cc2)oc2ccccc12 |  |
| 56.3 |  |  | O=c1cc(-c2ccc(OCCOCCNCc3ccc(C4(C(F)(F)F)N=N4)cc3)cc2)oc2ccccc12 | Activity [4]: Active |
| 92.6 | Not Active | Active | C#CCOc1cccc2oc(-c3ccc(OCCOCCNCc4ccc(C5(C(F)(F)F)N=N5)cc4)cc3)cc(=O)c12 | Activity [5]: Not Active; Activity [6]: Active; Activity [7]: Active; Activity [8]: Dose-Dependent Effect; Activity [9]: Not Active; Activity [10]: Not Active; Activity [11]: Active; Activity [12]: Active; Activity [4]: Active |
| 0.5 | Not Active | Not Active | C#CCNc1cc(C)cc2c(=O)cc(-c3ccc(OCCOCCNCc4ccc(C5(C(F)(F)F)N=N5)cc4)cc3)oc12 |  |
| 68 |  |  | O=c1cc(-c2ccc(OCCOCCN(CCOCCOc3ccc(-c4cc(=O)c5ccccc5o4)cc3)Cc3ccccc3)cc2)oc2ccccc12 |  |
| 0.4 |  |  | C#CCNc1cc(C)cc2c(=O)cc(-c3ccc(OCCOCCN(Cc4ccc(C5(C(F)(F)F)N=N5)cc4)Cc4ccc(C5(C(F)(F)F)N=N5)cc4)cc3)oc12 |  |
| 61.7 | Not Active | Active | [N-]=[N+]=NCc1cc(CNCCOCCOc2ccc(-c3cc(=O)c4ccccc4o3)cc2)cc(N=[N+]=[N-])c1 | Activity [4]: Active |
| 11 |  |  | O=c1cc(-c2ccc(OCCOCCOCCOCCOc3ccc(-c4cc(=O)c5c(O)cc(O)cc5o4)cc3)cc2)oc2cc(O)cc(O)c12 |  |
| 1 |  |  | O=c1cc(-c2ccc(O)cc2)oc2cc(O)cc(O)c12 [APIGENIN] |  |
